The assay concerns C. parvum strain UGA1. Put plainly: C. parvum growth inhibition assay (Nluc luminescence in HCT-8 cells). The assay is classed as cell-based, Cryptosporidium parvum. The following applies: for EC50: C. parvum growth inhibition in HCT-8 cells, 48 hours, 6 concentrations 10-0.04 μM; for inhibition at 1 µM / inhibition at 10 µM: HCT-8; for inhibition at 1 µM: read-out: % inh @ 1 uM C. parvum; for inhibition at 10 µM: read-out: % inh @ 10 uM C. parvum.

Where [1] appears, read: Cryptosporidium parvum, single point inhibition @ 1 uM.
[2] abbreviates: Cryptosporidium parvum, single point inhibition @ 10 uM.
Setting [3] is: Cryptosporidium parvum, HCT-8, 48 h.
The mark [4] stands for this setting: Cryptosporidium parvum, single point inhibition at 1 uM.
Setting [5] is: Cryptosporidium parvum, single point inhibition at 10 uM.

Our source for the EC50 and inhibition values is patent US20240124444A1 (Celgene Corporation, priority 2020, published 2024).

Read-outs that look alike come from different tables or passages of the source. Bounds are passed on as bounds.

In general, EC50 refers to the concentration that produces a half-maximal response. The low end stands for higher potency in that assay, the high end for lower potency in that assay. With `Cc1cc(-c2cc3cnc(N[C@@H]4CCOC4)cc3[nH]2)ccn1` [Example 13, (R)-2-(2-Methylpyridin-4-yl)-N-(tetrahydrofuran-3-yl)-1H-pyrrolo[3,2-c]pyridin-6-amine], the EC50 is 0.5 to 1 µM. For the same compound, under setting [1], the inhibition at 1 µM lay within 33 to 66%. Also, the inhibition at 10 µM under setting [2] was 67 to 100%.

For the compound `CCOc1nccc(-c2cc3cnc(NC(=O)C4C5CCCC54)cc3[nH]2)n1` (stereo not drawn) [Example 58, N-(2-(2-ethoxypyrimidin-4-yl)-1H-pyrrolo[3,2-c]pyridin-6-yl)bicyclo[3.1.0]hexane-6-carboxamide], the EC50 under setting [3] was over 1 µM. Also, under setting [1], the inhibition at 1 µM is 0 to 33%. In addition, the inhibition at 10 µM under setting [2] lay within 67 to 100%.

In the case of `Cn1cc(C(=O)Nc2cc3[nH]c(C#N)cc3cn2)cn1` [Example 280, N-(2-cyano-1H-pyrrolo[3,2-c]pyridin-6-yl)-1-methyl-1H-pyrazole-4-carboxamide], under setting [4], the inhibition at 1 µM lay in the range of 0 to 33%. The inhibition at 10 µM under setting [5] is 0 to 33%.

For `Cc1cccc(-c2cc3cnc(NC4CCOCC4)cc3[nH]2)c1` [Example 352, N-(tetrahydro-2H-pyran-4-yl)-2-m-tolyl-1H-pyrrolo[3,2-c]pyridin-6-amine], the EC50 under setting [3] was over 1 µM.

Turning to `Cc1cc(-c2cc3cnc(NC4CCNCC4)cc3n2C)ncn1` [Example 120, 1-methyl-2-(6-methylpyrimidin-4-yl)-N-(piperidin-4-yl)-1H-pyrrolo[3,2-c]pyridin-6-amine], the EC50 under setting [3] is over 1 µM.

`CC(C)n1cc(-c2cc3cnc(NC4CCOCC4)cc3n2C)cn1` [Example 241, 2-(1-isopropyl-1H-pyrazol-4-yl)-1-methyl-N-(tetrahydro-2H-pyran-4-yl)-1H-pyrrolo[3,2-c]pyridin-6-amine]: the inhibition at 1 µM under setting [4] was 33 to 66%. Also, under setting [5], the inhibition at 10 µM is 0 to 33%.

Regarding `Cc1cc(-c2cc3cnc(NC(=O)c4cccc5cn[nH]c45)cc3[nH]2)ccn1` [Example 237, N-(2-(2-methylpyridin-4-yl)-1H-pyrrolo[3,2-c]pyridin-6-yl)-1H-indazole-7-carboxamide], the inhibition at 1 µM under setting [4] was 0 to 33%. Besides, under setting [5], the inhibition at 10 µM fell in the range of 33 to 66%.

On to `COc1nc(C)cc(-c2cc3cnc(NC(=O)c4cnn(C)c4)cc3[nH]2)n1` [Example 315, N-(2-(2-methoxy-6-methylpyrimidin-4-yl)-1H-pyrrolo[3,2-c]pyridin-6-yl)-1-methyl-1H-pyrazole-4-carboxamide], for which the inhibition at 1 µM under setting [4] is 0 to 33%. For the same compound, the inhibition at 10 µM under setting [5] lay within 0 to 33%.

Regarding `Cc1cc(C(=O)Nc2cc3[nH]c(-c4ccncc4)cc3cn2)nn1C` [Example 282, 1,5-dimethyl-N-(2-(pyridin-4-yl)-1H-pyrrolo[3,2-c]pyridin-6-yl)-1H-pyrazole-3-carboxamide], under setting [4], the inhibition at 1 µM is 0 to 33%. Under setting [5], the inhibition at 10 µM was in the range of 0 to 33%.

For the compound `O=C(Nc1cc2[nH]c(-c3ccncc3)cc2cn1)c1ccccc1` [Example 277, N-(2-(pyridin-4-yl)-1H-pyrrolo[3,2-c]pyridin-6-yl)benzamide], the inhibition at 1 µM under setting [4] fell in the range of 0 to 33%. In addition, the inhibition at 10 µM under setting [5] is 0 to 33%.

For `CN1CCC(c2cc3cnc(NC(=O)C4CC4)cc3[nH]2)CC1` [Example 255, N-(2-(1-methylpiperidin-4-yl)-1H-pyrrolo[3,2-c]pyridin-6-yl)cyclopropanecarboxamide], under setting [4], the inhibition at 1 µM lay within 0 to 33%. Moreover, the inhibition at 10 µM under setting [5] was 0 to 33%.

Regarding `Cc1cc(-c2cc3cnc(NC(=O)C(C)C)cc3[nH]2)ccn1` [Example 160, N-(2-(2-methylpyridin-4-yl)-1H-pyrrolo[3,2-c]pyridin-6-yl)isobutyramide], the inhibition at 1 µM under setting [1] was in the range of 0 to 33%. Besides, under setting [2], the inhibition at 10 µM fell in the range of 67 to 100%.

Compound `Cn1cc(C(=O)Nc2cc3c(cn2)cc(-c2ccnc(NCC(F)(F)F)n2)n3CCO)cn1` [Example 80, N-(1-(2-hydroxyethyl)-2-(2-(2,2,2-trifluoroethylamino)pyrimidin-4-yl)-1H-pyrrolo[3,2-c]pyridin-6-yl)-1-methyl-1H-pyrazole-4-carboxamide] displayed an EC50 under setting [3] of over 1 µM. In addition, the inhibition at 1 µM under setting [1] is 0 to 33%. Moreover, the inhibition at 10 µM under setting [2] is 33 to 66%.

Turning to `N#Cc1cc2cnc(NC(=O)C3CC3)cc2[nH]1` [Example 180, N-(2-cyano-1H-pyrrolo[3,2-c]pyridin-6-yl)cyclopropanecarboxamide], the inhibition at 1 µM under setting [1] lay within 0 to 33%. Besides, under setting [2], the inhibition at 10 µM lay in the range of 67 to 100%.

For the compound `COc1ccc(Nc2cc3c(cn2)cc(-c2cnn(C)c2)n3C)cc1` [Example 203, N-(4-methoxyphenyl)-1-methyl-2-(1-methyl-1H-pyrazol-4-yl)-1H-pyrrolo[3,2-c]pyridin-6-amine], the inhibition at 1 µM under setting [4] was 0 to 33%. Under setting [5], the inhibition at 10 µM is 67 to 100%.

Take `Cc1cc(-c2cc3cnc(NC(=O)C(C)O)cc3[nH]2)ccn1` (stereo in doubt) [Example 307, (S)-2-hydroxy-N-(2-(2-methylpyridin-4-yl)-1H-pyrrolo[3,2-c]pyridin-6-yl)propanamide]: the inhibition at 1 µM under setting [4] lay within 0 to 33%. In addition, the inhibition at 10 µM under setting [5] fell in the range of 0 to 33%.

In the case of `Cc1cc(-c2cc3cnc(NS(=O)(=O)C4CC4)cc3[nH]2)ccn1` [Example 97, N-(2-(2-methylpyridin-4-yl)-1H-pyrrolo[3,2-c]pyridin-6-yl)cyclopropanesulfonamide], the 50% effective concentration (EC50) under setting [3] was over 1 µM.

`Cc1nccc(-c2cc3cnc(NC(=O)C4CCC4)cc3[nH]2)n1` [Example 99, N-(2-(2-methylpyrimidin-4-yl)-1H-pyrrolo[3,2-c]pyridin-6-yl)cyclobutanecarboxamide]: under setting [3], the EC50 was over 1 µM.

On to `O=C(Nc1cc2[nH]c(-c3ccncc3)cc2cn1)C1CCCCC1` [Example 217, N-(2-(pyridin-4-yl)-1H-pyrrolo[3,2-c]pyridin-6-yl)cyclohexanecarboxamide], for which, under setting [4], the inhibition at 1 µM lay in the range of 0 to 33%. Further, under setting [5], the inhibition at 10 µM fell in the range of 33 to 66%.

For `CC(C)n1c(-c2ccnc(NCC(F)(F)F)n2)cc2cnc(NC(=O)c3cnn(C)c3)cc21` [Example 338, N-(1-isopropyl-2-(2-(2,2,2-trifluoroethylamino)pyrimidin-4-yl)-1H-pyrrolo[3,2-c]pyridin-6-yl)-1-methyl-1H-pyrazole-4-carboxamide], the inhibition at 1 µM under setting [4] was in the range of 0 to 33%. Besides, the inhibition at 10 µM under setting [5] was 0 to 33%.

As for `c1ccc(Nc2cc3[nH]c(-c4cccnc4)cc3cn2)cc1` [Example 189, N-phenyl-2-(pyridin-3-yl)-1H-pyrrolo[3,2-c]pyridin-6-amine], the inhibition at 1 µM under setting [1] lay within 0 to 33%. The inhibition at 10 µM under setting [2] was in the range of 67 to 100%.

`FC(F)(F)c1cc2cnc(NC3CCOCC3)cc2[nH]1` [Example 71, N-(tetrahydro-2H-pyran-4-yl)-2-(trifluoromethyl)-1H-pyrrolo[3,2-c]pyridin-6-amine] displayed an EC50 under setting [3] of over 1 µM.

For the compound `CCOc1nccc(-c2cc3cnc(NC(=O)c4cccc5cn[nH]c45)cc3[nH]2)n1` [Example 243, N-(2-(2-ethoxypyrimidin-4-yl)-1H-pyrrolo[3,2-c]pyridin-6-yl)-1H-indazole-7-carboxamide], the inhibition at 1 µM under setting [4] fell in the range of 0 to 33%. Besides, under setting [5], the inhibition at 10 µM was 0 to 33%.

As to `FC1(F)CC(c2cc3cnc(NC4CCOCC4)cc3[nH]2)C1` [Example 397, 2-(3,3-difluorocyclobutyl)-N-(tetrahydro-2H-pyran-4-yl)-1H-pyrrolo[3,2-c]pyridin-6-amine], the inhibition at 1 µM under setting [4] lay in the range of 33 to 66%. For the same compound, under setting [5], the inhibition at 10 µM lay in the range of 33 to 66%.

For `Cn1ncc2ccc(Nc3cc4[nH]c(-c5ccncc5)cc4cn3)cc21` [Example 195, 1-methyl-N-(2-(pyridin-4-yl)-1H-pyrrolo[3,2-c]pyridin-6-yl)-1H-indazol-6-amine], the inhibition at 1 µM under setting [1] is 67 to 100%. Besides, the inhibition at 10 µM under setting [2] lay in the range of 67 to 100%.

Compound `N#Cc1cc(-c2cc3cnc(Nc4cccc(C5CCOCC5)c4)cc3[nH]2)ccn1` [Example 54, 4-(6-(3-(tetrahydro-2H-pyran-4-yl)phenylamino)-1H-pyrrolo[3,2-c]pyridin-2-yl)picolinonitrile] displayed an EC50 under setting [3] of over 1 µM. For the same compound, the inhibition at 1 µM under setting [1] fell in the range of 0 to 33%. Under setting [2], the inhibition at 10 µM was in the range of 67 to 100%.

For `Cn1c(-c2ccnc(NCC(F)(F)F)n2)cc2cnc(NC3CCCOC3)cc21` (stereo in doubt) [Example 379, (S)-1-methyl-N-(tetrahydro-2H-pyran-3-yl)-2-(2-(2,2,2-trifluoroethylamino)pyrimidin-4-yl)-1H-pyrrolo[3,2-c]pyridin-6-amine], under setting [3], the EC50 was over 1 µM.

With `Cn1c(-c2ccnc(C(F)(F)F)n2)cc2cnc(NC(=O)C3CC3)cc21` [Example 302, N-(1-methyl-2-(2-(trifluoromethyl)pyrimidin-4-yl)-1H-pyrrolo[3,2-c]pyridin-6-yl)cyclopropanecarboxamide], the inhibition at 1 µM under setting [4] was 0 to 33%. In addition, under setting [5], the inhibition at 10 µM fell in the range of 0 to 33%.

For the compound `CNC(=O)c1ccc(Nc2cc3[nH]c(-c4ccnc(C)c4)cc3cn2)cc1` [Example 190, N-methyl-4-(2-(2-methylpyridin-4-yl)-1H-pyrrolo[3,2-c]pyridin-6-ylamino)benzamide], the inhibition at 1 µM under setting [1] is 0 to 33%. Moreover, the inhibition at 10 µM under setting [2] fell in the range of 67 to 100%.

For the compound `CCOc1nccc(-c2cc3cnc(NC(=O)C4C5CCCCC54)cc3[nH]2)n1` (stereo not drawn) [Example 158, N-(2-(2-ethoxypyrimidin-4-yl)-1H-pyrrolo[3,2-c]pyridin-6-yl)bicyclo[4.1.0]heptane-7-carboxamide], the inhibition at 1 µM under setting [1] was 0 to 33%. The inhibition at 10 µM under setting [2] was in the range of 67 to 100%.

In the case of `COC1CCC(OC(=O)Nc2cc3[nH]c(-c4ccnc(C)c4)cc3cn2)CC1` (stereo not drawn) [Example 206, 4-methoxycyclohexyl 2-(2-methylpyridin-4-yl)-1H-pyrrolo[3,2-c]pyridin-6-ylcarbamate], under setting [4], the inhibition at 1 µM is 0 to 33%. Under setting [5], the inhibition at 10 µM lay in the range of 67 to 100%.
